pEC50: −log10 of the molar value. Read-outs that look alike come from different tables or passages of the source. Marks after values point to notes of the source that are not given here. Numbered stars: 1 amine (or outer) side, 2 acyl side, 3 side chain; on linkers, the order of the positions; unused ones are H or OH. Side chains are listed from the residue outwards. Peptide text beside a SMILES is read from it. * marks the point of attachment. γGlu = O=C(O)[C@H](CCC(=O)[*:2])N[*:1]; Palmitoyl = CCCCCCCCCCCCCCCC(=O)*
Columns and labels:
Mouse GLP1R = target: T1, Mouse GLP1R (Mus musculus, UniProt O35659); assay: cAMP assay in 3.2% mouse serum albumin (assay 2); assay type: cell-based
T1 construct: expressed in transfected cells
T1 sequence (O35659 22-463): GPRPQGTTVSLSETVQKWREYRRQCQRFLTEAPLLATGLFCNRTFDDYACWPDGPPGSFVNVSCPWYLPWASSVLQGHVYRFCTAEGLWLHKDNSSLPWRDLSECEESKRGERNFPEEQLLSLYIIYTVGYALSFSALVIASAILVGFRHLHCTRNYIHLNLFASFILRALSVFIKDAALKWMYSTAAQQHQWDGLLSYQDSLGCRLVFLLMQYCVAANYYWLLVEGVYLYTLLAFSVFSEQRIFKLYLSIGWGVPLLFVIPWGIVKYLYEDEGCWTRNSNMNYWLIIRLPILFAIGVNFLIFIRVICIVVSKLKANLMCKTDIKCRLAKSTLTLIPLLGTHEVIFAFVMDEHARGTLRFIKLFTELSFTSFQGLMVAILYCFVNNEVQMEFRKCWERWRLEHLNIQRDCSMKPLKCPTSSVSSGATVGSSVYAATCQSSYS
Description: Cryopreserved cell stocks were prepared in 1× cell freezing medium-DMSO serum free (Sigma Aldrich) at 2×10^7/vial and stored at −80° C. […] Peptides were serially diluted in DMSO and then diluted 100 fold into DMEM containing serum albumin at stated final concentration. […] Cells were added to the assay plates and incubated for 30 min at room temperature. Following incubation the assay was stopped and cAMP levels measured using the HTRF® dynamic d2 cAMP assay kit available from CisBio Bioassays, as per the manufacture's guidelines. Plates were read on Perkin Elmer ENVISION® fluorescence plate readers. Human and rat serum albumin were purchased from Sigma Aldrich and mouse serum albumin from Equitech Bio Ltd.
Data was transformed to % Delta F as described in manufacturer's guidelines and analysed by 4-parameter logistic fit to determine EC50 values. […] For instance. […] To compare the balance of activities at the GLP1R and GlucR between different peptides and across different conditions, these can be correlated using the calculation below, where the EC50's are related to those of the natural ligands.

Mouse GlucR = target: T2, Mouse GlucR (Mus musculus, UniProt Q61606); assay: cAMP assay in 3.2% mouse serum albumin (assay 2); assay type: cell-based; conditions: relative potencies vs natural ligands
T2 construct: expressed in transfected cells
T2 sequence (Q61606 27-485): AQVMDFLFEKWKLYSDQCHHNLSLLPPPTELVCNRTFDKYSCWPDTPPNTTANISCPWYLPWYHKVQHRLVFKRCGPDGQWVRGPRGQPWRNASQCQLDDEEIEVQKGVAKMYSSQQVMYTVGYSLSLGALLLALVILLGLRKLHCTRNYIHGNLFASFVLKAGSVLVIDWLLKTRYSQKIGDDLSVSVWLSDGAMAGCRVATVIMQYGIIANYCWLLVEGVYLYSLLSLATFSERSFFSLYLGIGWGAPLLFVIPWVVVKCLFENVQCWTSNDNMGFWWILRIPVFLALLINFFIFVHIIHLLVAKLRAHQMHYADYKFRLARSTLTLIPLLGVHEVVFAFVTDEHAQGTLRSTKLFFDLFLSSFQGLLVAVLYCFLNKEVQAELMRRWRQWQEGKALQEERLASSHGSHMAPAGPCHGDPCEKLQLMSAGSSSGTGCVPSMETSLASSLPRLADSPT

Rat GlucR = target: T3, Rat GlucR (Rattus norvegicus, UniProt P30082); assay: cAMP assay in 3.2% rat serum albumin (assay 2); assay type: cell-based; conditions: for Rat GlucR/GLP1R Ratio: […] rat serum albumin, relative potencies vs natural ligands
T3 construct: expressed in transfected cells
T3 sequence (P30082 27-485): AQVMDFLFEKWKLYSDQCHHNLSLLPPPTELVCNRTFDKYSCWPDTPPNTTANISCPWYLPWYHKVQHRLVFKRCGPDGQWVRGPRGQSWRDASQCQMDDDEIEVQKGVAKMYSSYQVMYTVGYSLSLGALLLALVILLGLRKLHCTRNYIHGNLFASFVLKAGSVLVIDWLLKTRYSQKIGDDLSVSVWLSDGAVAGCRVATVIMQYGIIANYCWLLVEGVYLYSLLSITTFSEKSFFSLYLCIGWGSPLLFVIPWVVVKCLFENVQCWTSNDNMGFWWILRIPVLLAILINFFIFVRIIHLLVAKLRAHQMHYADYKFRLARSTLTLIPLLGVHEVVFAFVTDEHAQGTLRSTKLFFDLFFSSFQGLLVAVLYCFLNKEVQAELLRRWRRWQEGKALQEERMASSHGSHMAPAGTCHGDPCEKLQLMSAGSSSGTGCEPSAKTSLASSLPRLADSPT

[1] = tested on: diet induced obesity (DIO) mouse model; assay: Diet induced obesity (DIO) mouse model, study A; assay type: in vivo; conditions: for BeHy / FGF21 / HOMA / Hepatic TG / Plasma Cholesterol / Plasma NEFA / Plasma TG: day 14; for Glucose / Insulin: day 14, 4-hour fasting
Source text: (§1) Female C57/B16JHsdOla (obtained from Harlan Laboratories. UK) were started on a high fat diet of D12492 (Research Diets, NJ, USA) and a chocolate confection, delicato ball (Delicata Bakverk, Sweden) at 9-11 weeks of age, and were maintained on the diet for 16 weeks prior to arrival to the animal facility, during a three week acclimation period and during drug treatment, caloric content of the two components of the diet is shown in Table 11. The mice were divided into 9 groups (n=5-6), and treatment was started at 29 weeks of age.
(§2) The body weight of the animals was monitored daily throughout the dosing period. At day 14, blood samples for the measurement of plasma glucose and insulin from conscious mice were obtained after a 4-hour fasting period. Mice were then anaesthetized using isoflurane and terminal blood was collected from the capillary bed behind the eye. The following parameters were measured: blood chemistry measurements of triglycerides, total cholesterol, non-esterified fatty acids (NEFA), beta-hydroxybutyrate and fibroblast growth factor 21 (FGF21) (Tables 14 and 15 below).

Human GLP1R = Human GLP1R (Homo sapiens, UniProt P43220); assay: cAMP activity assay in assay medium (assay 1); assay type: cell-based; parameters: expressed in transfected cells; conditions: assay medium
Human GLP1R, sequence (P43220 24-463): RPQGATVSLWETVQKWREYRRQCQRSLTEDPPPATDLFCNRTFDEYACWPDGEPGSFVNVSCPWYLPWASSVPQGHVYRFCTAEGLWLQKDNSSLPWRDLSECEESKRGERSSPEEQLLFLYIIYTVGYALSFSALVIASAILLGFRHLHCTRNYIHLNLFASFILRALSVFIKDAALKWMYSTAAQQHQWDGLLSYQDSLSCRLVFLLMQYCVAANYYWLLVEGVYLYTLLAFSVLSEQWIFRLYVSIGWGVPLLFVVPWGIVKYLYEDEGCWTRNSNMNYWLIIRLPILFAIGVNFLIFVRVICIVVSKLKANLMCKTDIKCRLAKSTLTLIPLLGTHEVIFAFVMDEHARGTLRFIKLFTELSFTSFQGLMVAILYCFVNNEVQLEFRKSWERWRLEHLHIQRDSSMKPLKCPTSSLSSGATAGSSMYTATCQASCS
Source text: Biological Activity of Peptides in Cell-Based cAMP Activity Assay (Assay 1):
All sample dilutions were made in duplicate.

[2] = tested on: diet induced obesity (DIO) mouse model; assay: Diet induced obesity (DIO) mouse model, study B; assay type: in vivo; conditions: for HOMA / BeHy / FGF21 / Hepatic TG / Plasma Cholesterol / Plasma TG: day 14
Source text: as §1
as §2, with “isoflourane” for “isoflurane”, “(Table 16” for “(Tables 14”, “Table 17” for “15”

[3] = 10 nmol/kg sc twice daily 14 days

## CCCCCCCCCCCCCCCC(=O)N[C@@H](CCC(=O)NCCCC[C@H](NC(=O)[C@H](CCCCN)NC(=O)[C@H](CO)NC(=O)[C@H](Cc1ccc(O)cc1)NC(=O)[C@H](CC(=O)O)NC(=O)[C@H](CO)NC(=O)[C@@H](NC(=O)[C@H](Cc1ccccc1)NC(=O)[C@@H](NC(=O)CNC(=O)[C@H](CCC(N)=O)NC(=O)[C@H](CO)NC(=O)[C@@H](N)Cc1c[nH]cn1)[C@@H](C)O)[C@@H](C)O)C(=O)N[C@@H](CC(C)C)C(=O)N[C@@H](CC(=O)O)C(=O)N[C@@H](CO)C(=O)N[C@@H](CCC(=O)O)C(=O)N[C@@H](CCCNC(=N)N)C(=O)N[C@@H](C)C(=O)N[C@@H](CCCNC(=N)N)C(=O)N[C@@H](CC(=O)O)C(=O)N[C@@H](Cc1ccccc1)C(=O)N[C@H](C(=O)N[C@@H](C)C(=O)N[C@@H](Cc1c[nH]c2ccccc12)C(=O)N[C@@H](CC(C)C)C(=O)N[C@H](C(=O)N[C@@H](C)C(=O)NCC(=O)NCC(N)=O)C(C)C)C(C)C)C(=O)O [Peptide G730] (H-HSQGTFTSDYSKK([γGlu-Palmitoyl])LDSERARDFVAWLVAGG-NH2; N-terminus assumed)
Mouse GLP1R
  pEC50: 8.96
Mouse GlucR
  Mouse GlucR/GLP1R Ratio: 0.04
Rat GlucR; 3.2% rat serum albumin
  pEC50: 7.35
Rat GlucR
  Rat GlucR/GLP1R Ratio: 0.06
[1]; [3]
  BW day 14 (% change of vehicle mean): −7.5%
[1]; 10 nmol/kg sc twice daily
  BeHy: 428 µmol/L
  FGF21: 1963 pg/mL
  HOMA: 3.3
  Hepatic TG: 9.0 * g TB/100 g tissue
  Plasma Cholesterol: 3.10 mM
  Plasma NEFA: 0.28 Mm
  Plasma TG: 0.21 mM
  Glucose: 7.2 mM
  Insulin: 0.4 nM
[1]; 20 nmol/kg sc twice daily 14 days
  BW day 14 (% change of vehicle mean): −15.6%
[1]; 20 nmol/kg sc twice daily
  BeHy: 750 µmol/L
  FGF21: 2236 pg/mL
  HOMA: 1.7
  Hepatic TG: 17.7 g TB/100 g tissue
  Plasma Cholesterol: 2.46 mM
  Plasma NEFA: 0.25 Mm
  Plasma TG: 0.20 mM
  Glucose: 6.7 mM
  Insulin: 0.2 nM
[1]; 50 nmol/kg sc twice daily
  BeHy: 1477 µmol/L
  FGF21: 5294 pg/mL
  HOMA: 2.1
  Hepatic TG: 28.1 g TB/100 g tissue
  Plasma Cholesterol: 2.19 mM
  Plasma NEFA: 0.32 Mm
  Plasma TG: 0.23 mM
  Glucose: 5.9 mM
  Insulin: 0.3 nM
[1]; DIO mice, FIGS. 1-4
  body weight over the 14 day dosing period: dose dependent and continuous weight loss
Human GLP1R; Table 2, C-terminal amide peptides, read-out: Human GLP1R EC50
  pEC50: 10.74
Human GLP1R; Table 4, read-out: hGLP1R EC50
  pEC50: 10.40

## L-Histidyl-L-seryl-L-glutaminylglycyl-L-threonyl-L-phenylalanyl-L-threonyl-L-seryl-L-alpha-aspartyl-(N6-[N-(1-oxohexadecyl)-L-gamma-gutamyl])L-lysy-L-sery-L-alpha-glutamyl-L-tyrosyl-L-leucyl-L-alpha-aspartyl-L-seryl-L-alpha-glutamyl-L-arginyl-L-alanyl-L-arginyl-L-alpha-L-aspartyl-L-phenylalanyl-L-valyl-L-alanyl-L-tryptophyl-L-leucyl-L-alpha-glutamyl-L-alanylglycylglycine [Peptide G933]
Rat GlucR
  Rat GlucR/GLP1R Ratio: 0.27
[2]; 5 nmol/kg sc twice daily 14 days
  BW day 14 (% change of vehicle mean): −11%
[2]; 5 nmol/kg sc twice daily
  HOMA: 3.31
[2]; [3]
  BW day 14 (% change of vehicle mean): −19%
[2]; 10 nmol/kg sc twice daily
  HOMA: 1.98
[2]; DIO mice, FIGS. 5-8
  body weight over the 14 day dosing period: dose dependent and continuous weight loss
[2]; dose in Table 17: 5 nmol/kg
  BeHy: 593.56 µmol/L
  FGF21: 4459 pg/mL
  Hepatic TG: 14.7 g TB/100 g tissue
  Plasma Cholesterol: 2.32 mM
  Plasma TG: 0.16 mM
[2]; dose in Table 17: 50 nmol/kg
  BeHy: 673.08 µmol/L
  FGF21: 2582 pg/mL
  Hepatic TG: 13.3 g TB/100 g tissue
  Plasma Cholesterol: 2.88 mM
  Plasma TG: 0.39 mM

— patent US20200354426A1 (MEDIMMUNE LIMITED, priority 2016, published 2020)
